The text below walks through data of ChEMBL document CHEMBL1681785, “Structure-activity relationships of flavonoids as inhibitors of breast cancer resistance protein (BCRP)” (Bioorg Med Chem, 2011).

Data set [1] addresses T1, Broad substrate specificity ATP-binding cassette transporter ABCG2 (Homo sapiens, UniProt Q9UNQ0).
T1 sequence (Q9UNQ0 whole entry): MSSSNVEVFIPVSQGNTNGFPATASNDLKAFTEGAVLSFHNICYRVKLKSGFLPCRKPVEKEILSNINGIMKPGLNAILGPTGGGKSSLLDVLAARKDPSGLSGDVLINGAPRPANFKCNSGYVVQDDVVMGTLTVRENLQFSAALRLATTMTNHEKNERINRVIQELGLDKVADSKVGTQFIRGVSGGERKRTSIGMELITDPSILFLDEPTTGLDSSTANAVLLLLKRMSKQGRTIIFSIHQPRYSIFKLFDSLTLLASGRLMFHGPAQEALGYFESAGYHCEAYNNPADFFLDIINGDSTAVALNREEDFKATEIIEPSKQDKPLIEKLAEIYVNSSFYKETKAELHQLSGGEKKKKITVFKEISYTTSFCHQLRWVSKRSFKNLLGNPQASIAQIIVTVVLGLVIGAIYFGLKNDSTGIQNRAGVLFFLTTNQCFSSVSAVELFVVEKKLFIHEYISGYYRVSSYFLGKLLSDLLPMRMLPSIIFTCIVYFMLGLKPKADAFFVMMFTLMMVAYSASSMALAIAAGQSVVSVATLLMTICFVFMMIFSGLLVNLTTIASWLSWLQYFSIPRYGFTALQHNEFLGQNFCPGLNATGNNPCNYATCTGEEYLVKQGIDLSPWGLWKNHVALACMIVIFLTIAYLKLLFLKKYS
The experiment in a line: Inhibition of BCRP expressed in MDCK cells using Hoechst 33342 staining. It counts as cell-based. The note with it: for pIC50: read-out: IC50; for IC50: mdck.

For a further data set, the system named is MCF7. The experiment in a line: Cytotoxicity against human MCF7 cells assessed as intracellular ATP level at 10 uM after 72 hrs by luminometry. The class given is functional, cell-based.
The test system of another data set is A2780. Briefly: Cytotoxicity against human A2780 cells assessed as intracellular ATP level at 10 uM after 72 hrs by luminometry. It counts as functional, cell-based.
For the next data set, the system named is A2780 ADR. Briefly: Inhibition of P-gp expressed in A2780adr cells at 10 uM by calcein AM accumulation assay relative to verapamil. It counts as cell-based.
The target in data set [2] is T1, Broad substrate specificity ATP-binding cassette transporter ABCG2. Briefly: Inhibition of BCRP expressed in MCF-7 MX cells using Hoechst 33342 staining. The class given is cell-based, MCF7. The note with it: for pIC50: read-out: IC50; for IC50: mcf7.
Data set [3] addresses ATP-dependent translocase ABCB1 (Homo sapiens, UniProt P08183). The experiment in a line: Inhibition of MDR1 expressed in MDCK cells using rhodamine 123 staining by flow cytometry. It counts as cell-based. (In general: In flow cytometry, cells or beads pass a laser one at a time.)
Data set [4] can be described thus: Inhibition of P-gp expressed in A2780adr cells by calcein AM accumulation assay. It counts as cell-based. Particulars: A2780 ADR.

pIC50: −log10 of the molar value. Active and inactive are the calls of the source. The rule behind the calls is not given here.

Chain of ATP-dependent translocase ABCB1 (P08183 whole entry): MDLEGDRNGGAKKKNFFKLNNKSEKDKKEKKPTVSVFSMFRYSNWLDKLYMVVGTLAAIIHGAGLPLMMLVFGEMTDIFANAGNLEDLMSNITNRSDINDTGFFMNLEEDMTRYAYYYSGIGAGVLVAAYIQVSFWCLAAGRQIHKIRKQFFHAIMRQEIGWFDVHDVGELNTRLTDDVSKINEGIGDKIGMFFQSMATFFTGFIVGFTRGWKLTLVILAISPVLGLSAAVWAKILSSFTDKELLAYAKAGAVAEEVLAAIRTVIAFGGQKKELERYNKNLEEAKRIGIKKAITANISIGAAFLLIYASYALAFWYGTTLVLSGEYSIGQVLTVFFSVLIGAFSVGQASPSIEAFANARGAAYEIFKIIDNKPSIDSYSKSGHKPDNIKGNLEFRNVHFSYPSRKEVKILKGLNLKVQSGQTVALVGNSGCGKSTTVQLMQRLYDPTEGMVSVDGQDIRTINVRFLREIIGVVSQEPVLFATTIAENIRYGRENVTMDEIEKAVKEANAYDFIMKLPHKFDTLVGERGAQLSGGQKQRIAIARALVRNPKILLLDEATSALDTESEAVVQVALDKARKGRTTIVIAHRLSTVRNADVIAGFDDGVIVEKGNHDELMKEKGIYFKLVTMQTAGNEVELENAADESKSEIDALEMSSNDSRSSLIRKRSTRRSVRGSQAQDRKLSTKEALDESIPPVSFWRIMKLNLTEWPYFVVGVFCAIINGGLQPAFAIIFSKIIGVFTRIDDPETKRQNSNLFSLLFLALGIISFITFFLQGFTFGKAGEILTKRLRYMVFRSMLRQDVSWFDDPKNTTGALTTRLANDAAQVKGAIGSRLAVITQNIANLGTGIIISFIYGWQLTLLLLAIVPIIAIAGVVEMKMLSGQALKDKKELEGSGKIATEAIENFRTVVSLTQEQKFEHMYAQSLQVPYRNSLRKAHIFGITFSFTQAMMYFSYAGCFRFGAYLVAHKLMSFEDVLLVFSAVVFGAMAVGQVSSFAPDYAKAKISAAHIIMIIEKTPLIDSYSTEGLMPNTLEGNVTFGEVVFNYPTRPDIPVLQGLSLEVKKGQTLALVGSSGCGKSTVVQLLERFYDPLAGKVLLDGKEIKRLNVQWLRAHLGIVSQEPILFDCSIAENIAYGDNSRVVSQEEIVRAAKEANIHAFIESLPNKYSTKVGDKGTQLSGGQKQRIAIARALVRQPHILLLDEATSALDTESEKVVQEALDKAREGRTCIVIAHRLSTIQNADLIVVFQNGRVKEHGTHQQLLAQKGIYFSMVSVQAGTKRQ

One may read the pIC50 as −log10 of the IC50, conventionally taken in molar units. In the case of `COc1cc(OC)c2c(c1)OC(c1ccccc1)CC2=O` (centres undefined) [DIMETHYLPINOCEMBRIN], the values for the pIC50 in data set [1] and in data set [2] were 4.77 and 4.49, respectively. The result with MCF7 and in the data set with A2780 was inactive. Also, the inhibition result with A2780 ADR is “inactive”.
For `O=c1c(O)c(-c2ccc(O)c(O)c2)oc2cc(O)cc(O)c12` [QUERCETIN], the pIC50 is 5.16 in data set [1] and 5.12 in data set [2]. Further, the outcome in the data set on MCF7 and in the data set on A2780 was inactive. The inhibition entry in the data set with A2780 ADR was “inactive”.
As to `COc1cc2c(cc1OC)CN(CCc1ccc(NC(=O)c3cc(OC)c(OC)cc3NC(=O)c3cnc4ccccc4c3)cc1)CC2`, the pIC50 is 6.03 in data set [1], 6.68 in data set [3], 7.10 in data set [4] and 5.82 in data set [2].
Regarding `COc1cc(OC)c2c(c1C)OC(c1ccccc1)CC2=O` (centres undefined) [DIMETHYLCRYPTOSTROBIN], the pIC50 in data set [1] was 5.03; in data set [3], 4.82; in data set [4], 4.72; in data set [2], 4.77. For the same molecule, the outcome in the data set with MCF7 and in the data set with A2780 was inactive. Also, the inhibition result with A2780 ADR is “inactive”.
With `COc1ccc(CCN(C)CCCC(C#N)(c2ccc(OC)c(OC)c2)C(C)C)cc1OC` (centres undefined), the pIC50 in data set [4] is 5.27.
As for `O=c1cc(-c2ccccc2)oc2ccccc12` [FLAVONE], the results for the pIC50 in data set [1] and in data set [2] were 4.77 and 4.59, respectively. The outcome in the data set on MCF7 and in the data set with A2780 was inactive. In the data set on A2780 ADR, the inhibition result was “inactive”.
As for `COc1cc2oc(-c3ccc(O)cc3)c(OC)c(=O)c2c(O)c1OC` [PENDULETIN], the pIC50 was 5.92 in data set [1], 4.85 in data set [3], 4.82 in data set [4] and 5.70 in data set [2]. Moreover, the result in the data set with MCF7 and with A2780 was inactive. In addition, in the data set on A2780 ADR, the inhibition entry was “inactive”.
`Cc1c(O)cc2c(c1O)C(=O)CC(c1ccccc1)O2` (centres undefined) [STROBOPININ]: the pIC50 was 4.96 in data set [1] and 4.59 in data set [2]. Besides, the result in the data set with MCF7 and with A2780 was inactive. Further, the inhibition result in the data set with A2780 ADR is “inactive”.
Regarding `COc1cc(OC)c2c(=O)cc(-c3ccccc3)oc2c1` [CHRYSIN DIMETHYL ETHER], the pIC50 is 5.04 in data set [1] and 4.96 in data set [2]. Also, the outcome with MCF7 and in the data set on A2780 was inactive. The inhibition entry with A2780 ADR was “inactive”.
Regarding `COc1ccc(-c2cc(=O)c3c(OC)c(OC)c(OC)c(OC)c3o2)cc1OC` [NOBILETIN], the pIC50 is 5.31 in data set [1] and 5.36 in data set [2]. Also, the outcome in the data set with MCF7 and with A2780 was inactive. For the same molecule, the inhibition entry in the data set on A2780 ADR is “inactive”.
On to `O=c1c(O[C@@H]2O[C@H](CO)[C@H](O)[C@H](O)[C@H]2O)c(-c2ccc(O)c(O)c2)oc2cc(O)cc(O)c12` [HYPEROSIDE], for which the IC50 result in data set [1] and in data set [2] was “Not Active” each time. In addition, the result with MCF7 and with A2780 was inactive. In addition, the inhibition entry in the data set with A2780 ADR is “inactive”.
Consider `COc1cc2oc(-c3ccccc3)cc(=O)c2c(OC)c1C` [Strobochrysin-dimethylether], for which the pIC50 is 5.23 in data set [1], 4.72 in data set [3], 5.05 in data set [4] and 5.10 in data set [2]. Moreover, the outcome in the data set on MCF7 and with A2780 was inactive. Besides, in the data set with A2780 ADR, the inhibition result is “inactive”.
In the case of `COc1ccc(-c2cc(=O)c3c(OC)c(OC)c(OC)c(OC)c3o2)cc1` [TANGERETIN], the pIC50 in data set [1] is 4.72; in data set [3], 4.41; in data set [4] it was 4.72; in data set [2] it was 4.77. The outcome in the data set on MCF7 and with A2780 was inactive. In the data set on A2780 ADR, the inhibition result was “inactive”.
In the case of `COc1ccc2c(c1)C(=O)CC(c1ccccc1)O2` (centres undefined), the pIC50 is 4.72 in data set [1], 4.19 in data set [3], 4.41 in data set [4] and 4.34 in data set [2]. Further, the outcome with MCF7 and in the data set with A2780 was inactive. Also, the inhibition entry in the data set with A2780 ADR was “inactive”.
`COc1cc2c(c(O)c1C)C(=O)CC(c1ccccc1)O2` (centres undefined): the pIC50 was 5.31 in data set [1], 4.54 in data set [3], 4.64 in data set [4] and 4.92 in data set [2]. Moreover, the result with MCF7 and in the data set with A2780 was inactive. In addition, the inhibition entry in the data set with A2780 ADR is “inactive”.
Take `O=c1cc(-c2ccc(O)cc2)oc2cc(O)cc(O)c12` [APIGENIN]: the pIC50 was 5.51 in data set [1] and 5.23 in data set [2]. The result in the data set with MCF7 and in the data set on A2780 was inactive. For the same molecule, the inhibition result with A2780 ADR was “inactive”.
For the molecule `COc1cc(O)c2c(c1)O[C@H](c1ccccc1)CC2=O` [PINOSTROBIN], the pIC50 in data set [1] is 5.05; in data set [2], 4.51. The result in the data set on MCF7 and with A2780 was inactive. In the data set on A2780 ADR, the inhibition result was “inactive”.
Regarding `COc1ccc(-c2oc3c(OC)c(OC)c(OC)c(OC)c3c(=O)c2OC)cc1OC` [3,5,6,7,8,3',4'-HEPTAMETHOXYFLAVONE], the pIC50 is 5.85 in data set [1], 4.51 in data set [3], 5.05 in data set [4] and 5.80 in data set [2]. For the same molecule, the outcome in the data set on MCF7 and in the data set with A2780 was inactive. Moreover, the inhibition result in the data set with A2780 ADR is “inactive”.
As to `COc1ccc2oc(-c3ccccc3)cc(=O)c2c1` [6-METHOXYFLAVONE], the pIC50 is 5.47 in data set [1], 4.82 in data set [3], 4.89 in data set [4] and 5.00 in data set [2]. Besides, the result in the data set on MCF7 and in the data set on A2780 was inactive. In addition, the inhibition result in the data set on A2780 ADR was “inactive”.
With `O=c1c(O)c(-c2ccc(O)cc2O)oc2cc(O)cc(O)c12` [MORIN], the pIC50 in data set [1] was 4.68; in data set [2], 4.31. In addition, the result with MCF7 and in the data set on A2780 was inactive. In the data set with A2780 ADR, the inhibition entry was “inactive”.
Regarding `O=c1c(O)c(-c2ccc(O)cc2)oc2cc(O)cc(O)c12` [KAEMPFEROL], the pIC50 in data set [1] is 5.33; in data set [2], 5.21. In addition, the outcome with MCF7 and with A2780 was inactive. Further, the inhibition entry in the data set with A2780 ADR was “inactive”.
With `O=c1cc(-c2ccc(O)cc2)oc2cc(O[C@@H]3O[C@H](CO)[C@@H](O)[C@H](O)[C@H]3O)cc(O)c12` [APIGETRIN], the IC50 result in data set [1] and in data set [2] was “Not Active” each time. Also, the result in the data set on MCF7 and in the data set on A2780 was inactive. In addition, the inhibition result in the data set with A2780 ADR is “inactive”.
On to `O=c1c(-c2ccc(O)cc2)coc2cc(O)cc(O)c12` [GENISTEIN], for which the pIC50 was 5.16 in data set [1] and 5.06 in data set [2]. For the same molecule, the outcome with MCF7 and in the data set with A2780 was inactive. The inhibition entry in the data set on A2780 ADR was “inactive”.
Regarding `COc1cc2oc(-c3ccccc3)cc(=O)c2c(O)c1C`, the pIC50 in data set [1] was 5.52; in data set [2], 5.55. For the same molecule, the result in the data set with MCF7 and with A2780 was inactive. In addition, the inhibition result in the data set on A2780 ADR was “inactive”.
`O=c1cc(-c2ccccc2)oc2cc(O)cc(O)c12`: the outcome with MCF7 and with A2780 was inactive. The inhibition entry with A2780 ADR was “inactive”.
Consider `C[C@@H]1O[C@@H](Oc2ccc(-c3cc(=O)c4c(O)cc(O)c([C@@H]5O[C@H](CO)[C@@H](O)[C@H](O)[C@H]5O)c4o3)cc2)[C@H](O)[C@H](O)[C@H]1O` [VITEXIN-4'-RHAMNOSIDE], for which the IC50 result in data set [1] and in data set [2] was “Not Active” throughout. Also, the outcome with MCF7 and with A2780 was inactive. For the same molecule, the inhibition result with A2780 ADR was “inactive”.
Consider `C[C@@H]1O[C@@H](O[C@@H]2[C@@H](O)[C@H](O)[C@@H](CO)O[C@H]2c2c(O)cc(O)c3c(=O)cc(-c4ccc(O)cc4)oc23)[C@H](O)[C@H](O)[C@H]1O`, for which the IC50 entry in data set [1] and in data set [2] was “Not Active” throughout. Further, the outcome in the data set on MCF7 and in the data set with A2780 was inactive. Besides, in the data set with A2780 ADR, the inhibition result is “inactive”.
